# Reference: US20250346582A1, “SPLEEN TYROSINE KINASE INHIBITORS AND METHODS OF USE THEREOF” (THE BOARD OF TRUSTEES OF THE UNIVERSITY OF ILLINOIS, priority 2022, published 2025)
# Tests used:
# [1] = system: entospletinib-resistant MV4-11 cells; assay: XTT cell proliferation assay, entospletinib-resistant MV4-11 cells; format: cell-based; details: Homo sapiens, read-out: IC50, inhibition of proliferation (XTT assay)
# Experimental: (§1) Then the concentration was maintained at 5 μM.
# (§2) MV4-11 or HL-60 cells were seeded into a clear-bottom 96-well plate containing varying concentrations of inhibitors in the optimal growth media described above and the mixtures were incubated for 16 h. Cells were then treated with a mixture of XTT-labeling reagents and the electron coupling reagents according to the manufacturer's protocol (Roche). After 4 h, the absorbance values at 475 nm and at 660 nm were simultaneously measured by Synergy™ Neo spectrofluorometer at 25° C. Cells with the growth media was used for background correction.
# [2] = system: MV4-11 cells; assay: Generation of drug-resistant MV4-11 cells under chronic treatment; format: cell-based; details: inhibitor increased from 0.5 to 5 μM over 10 weeks
# Experimental: as §1
# [3] = system: Raji B cells; assay: Cell viability assay (CellTiter-Glo), Raji cells; format: cell-based; details: 0.5-5 μM
# Experimental: All cell viability assays were conducted in a white, flat-bottom, 96-well tissue culture plate (Corning). The Raji cells were seeded at a density of 3.0×10^5 cells/well 24 h prior to the incubation with the inhibitor. Varying concentrations of WC36 (or DMSO) was then added to each well and the plates were incubated at 37° C. and at 5% CO2 for 72 h. Cell viability was quantified with the CellTiter-Glo reagent. Growth media were removed by aspiration and replaced with 100 μl fresh media and 100 μl CellTiter-Glo reagent. The plates were then gently shaken for 2 min and incubated at 25 C.° for additional 8 min. The luminescence was measured using Synergy™ Neo spectrofluorometer at 25 C.°. The luminescence value at each WC36 concentration was normalized against that without WC36. DMSO with the same volume as the WC36 solution was used as negative controls.
# [4] = system: HL60 cells; assay: XTT cell proliferation assay, HL60 cells; format: cell-based
# Experimental: as §2
# [5] = system: Syk activation; assay: Immunoblotting of patient-derived primary AML cells; format: cell-based; details: primary AML cells from 4 patients refractory or relapsed
# Experimental: (§3) Primary samples were obtained from an existing HEMBANK at UIC under an IRB approved research protocol (protocol #2021-0723). Cells were processed and treated with inhibitors as reported previously^75. For primary AML samples, mononuclear cells isolated by Ficoll density centrifugation were utilized. mononuclear cells were treated in culture at a density of 0.5×10^6/ml in StemSpan with CD34 expansion supplement (Stemcell Technologies) for 24 h and then harvested for immunoblotting assays. In parallel 2×10^4 cells were plated in triplicate for each treatment condition in Methoccult H4434 (Stem Cell Technologies) in the presence of drug. At days 12-14, colonies were manually enumerated under light microscopy and normalized to DMSO control for each individual sample due to interpatient variability in colony forming activity. Normalized colony forming units for pooled treated and untreated samples (n=4) were compared using unpaired 2-tailed t test. p<0.05 was considered statistically significant.
# [6] = system: patient AML cells; assay: Colony growth assay of patient-derived AML cells; format: cell-based; details: primary AML cells from 4 patients
# Experimental: as §3
# [7] = target: T1, scaffolding function of Syk (Homo sapiens, UniProt P43405); assay: Co-immunoprecipitation with Syk, entospletinib-resistant MV4-11 cells; format: cell-based; details: 5 μM
# T1 construct: host or cells: MV4-11 AML cells (naive and entospletinib-resistant)
# Experimental: (§4) MV-4-11 cells were collected by centrifugation, washed twice with phosphate phosphate-buffered saline (PBS) and resuspended in the immunoprecipitation (IP) buffer (50 mM HEPES, pH 7.4, 150 mM NaCl, 1 mM MgCl2, 1 mM EGTA, and 0.25 mM GTP) with 0.2-0.5% Triton X-100 and a protease inhibitor mix (Sigma-Aldrich). Lysates were prepared after 5 min of incubation on ice by repeated pipetting and centrifugation for 10 min at 12,000 g and at 4° C. For immunoprecipitation, the SYK-specific antibody was immobilized onto 100 μl Dynabeads/protein A (ThermoFisher) and the excess antibody was washed away by placing the tube in a DynaMag magnet and removing the supernatant. The resuspended beads were then incubated with the cell extract supernatant containing 500 μg of proteins for 1 h at 4° C. The immunoprecipitates were rinsed three times with the IP buffer and eluted with 30 μl of the sample buffer containing sodium dodecyl sulfate (SDS). For detection of proteins in total extracts (i.e., Input), 30 μg of the sample was loaded in each gel lane for western blot analysis.
# [8] = target: T1, scaffolding function of Syk; assay: Co-immunoprecipitation with Syk, naïve MV4-11 cells; format: cell-based; details: 5 μM
# Experimental: as §4
# [9] = target: T2, Syk-cSH2 E164D (Homo sapiens, UniProt P43405, E164D); assay: Fluorescence quenching vesicle binding assay, Syk-cSH2 E164D mutant; details: up to 5 μM; POPC/POPS/PIP3/dabsyl-PE vesicles
# T2 construct: polyhistidine (N); made in house; host or cells: Escherichia coli BL21 (DE3) pLysS
# Experimental: The membrane-binding assay is based on fluorescence quenching of EGFP fused to a SH2 domain by a dark quencher containing lipid, dabsyl-PE, incorporated in lipid vesicles. The plate reader assay was performed using the Synergy™ Neo spectrofluorometer at 25° C. Nontreated black polystyrene 96-well plates (Corning) were used. Protein (10-50 nM) with the increasing concentration of vesicles with a given lipid composition in 20 mM Tris buffer, pH 7.4, containing 0.16 M NaCl was added to each row of wells and the EGFP fluorescence emission at 516 nm was measured with excitation set at 485 nm. Z′ factor for the assay system was determined as described^74. Imax and IC50 values of inhibitors were determined using the equation, I=Imax/(1+IC50/[I]) where I and [I] indicate % inhibition and inhibitor concentration, respectively. The average and standard deviation values were obtained from triplicate determinations.
smiles,measurement,setting,value
"[N-]=[N+]=C(C(=O)OC1CCCCC1)C(Nc1ncccn1)c1c[nH]c2ccccc12 (racemic) [WC36, Cyclohexyl 2-diazo-3-(1H-indol-3-yl)-3-(pyrimidin-2-ylamino)propanoate]",IC50,[1],500 ± 10 nM
same,development of acquired resistance,[2],could not develop resistance to WC36
same,effect on cell viability,[3],minimal effect on cell viability
same,inhibition of proliferation (XTT assay),[4],potently suppressed the proliferation of HL60 cells
same,inhibition of Syk activation,[5],significant inhibition of Syk activation
same,suppression of colony forming activity,[6],statistically significant suppression of colony forming activity
same,suppression of co-precipitation with Syk,[7],greatly suppressed co-precipitation
same,suppression of the scaffolding function of Syk (co-precipitation),[8],greatly suppressed the scaffolding function of Syk
same,inhibition of membrane binding of Syk-cSH2 E164D,[9],not inhibited
